pIC50, pKi: −log10 of the molar value. Where two headings read alike, the source gives them in different places.
Key:
[1] = target: T1, OX1 (Homo sapiens, UniProt O43613); assay: Orexin-receptor binding ability, [125I]-OX-A, CHO cell membranes expressing OX1; design: expressed in transfected cells; host or cells: CHO cells (membrane preparation)
T1 sequence (O43613 1-425): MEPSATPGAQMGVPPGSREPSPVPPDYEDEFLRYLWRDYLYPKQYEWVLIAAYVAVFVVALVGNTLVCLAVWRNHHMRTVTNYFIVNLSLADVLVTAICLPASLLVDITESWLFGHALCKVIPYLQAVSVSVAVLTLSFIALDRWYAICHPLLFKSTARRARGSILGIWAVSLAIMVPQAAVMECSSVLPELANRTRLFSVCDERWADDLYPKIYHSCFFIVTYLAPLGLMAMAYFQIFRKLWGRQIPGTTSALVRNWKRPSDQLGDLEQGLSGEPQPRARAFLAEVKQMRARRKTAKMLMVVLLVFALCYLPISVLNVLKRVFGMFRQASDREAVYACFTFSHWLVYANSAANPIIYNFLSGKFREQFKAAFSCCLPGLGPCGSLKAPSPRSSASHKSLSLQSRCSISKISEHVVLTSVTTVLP
Method: (§1) The assay was carried out using a 96-well Wheat Germ Agglutinin Flash Plate (PerkinElmer). The volume in a single assay well was 100 ul, and the composition of the reaction solution was as follows:
(§2) 25 mM HEPES (pH 7.5), 1 mM CaCl2, 4.5 mM MgCl2, 0.5% BSA (bovine serum albumin), 0.1% sodium azide, 0.05% Tween-20, and 0.2% DMSO.
Cell membranes were prepared from recombinant CHO cells that expressed OX2 or OX1. The cell membranes were used in an amount of 5 μg protein/assay. […] Finally, the radioactivity of each well was measured using a scintillation counter (TopCount, PerkinElmer). The obtained results are shown in terms of IC50 values (nM) in the following table.

[2] = target: T2, OX2 (Homo sapiens, UniProt O43614); assay: Orexin-receptor binding ability, [125I]-OX-A, CHO cell membranes expressing OX2; design: expressed in transfected cells; host or cells: CHO cells (membrane preparation)
T2 sequence (O43614 1-444): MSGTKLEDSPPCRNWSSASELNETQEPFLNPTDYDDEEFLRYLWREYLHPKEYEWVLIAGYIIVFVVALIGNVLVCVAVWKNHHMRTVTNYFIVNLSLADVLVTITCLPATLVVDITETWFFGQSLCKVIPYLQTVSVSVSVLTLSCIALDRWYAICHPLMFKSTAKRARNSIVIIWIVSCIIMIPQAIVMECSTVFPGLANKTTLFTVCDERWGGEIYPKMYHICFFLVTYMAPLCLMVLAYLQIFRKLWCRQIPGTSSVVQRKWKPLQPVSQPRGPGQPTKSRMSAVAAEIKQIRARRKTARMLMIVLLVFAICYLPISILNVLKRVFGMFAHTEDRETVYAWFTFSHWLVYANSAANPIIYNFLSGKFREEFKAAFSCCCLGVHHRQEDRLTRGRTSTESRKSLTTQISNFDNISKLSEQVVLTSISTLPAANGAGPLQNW
Method: as §1, §2
Cell membranes were prepared from recombinant CHO cells that expressed OX2 or OX1. The cell membranes were used in an amount of 5 μg protein/assay. Test compound in various concentrations, and 0.2 nM [^125I]-OX-A as tracer were added to the cell membranes, and then allowed to react at room temperature for 30 minutes. After completion of the reaction, the reaction solution as a whole was discarded, and the wells were then washed once with 200 ul of wash buffer (25 mM HEPES (pH 7.5), 1 mM CaCl2, 5 mM MgCl2, 0.5% BSA, 0.1% sodium azide, 0.05% Tween-20, and 525 mM sodium chloride). Finally, the radioactivity of each well was measured using a scintillation counter (TopCount, PerkinElmer). The obtained results are shown in terms of IC50 values (nM) in the following table.

[3] = target: T1, OX1; assay: Antagonism PLAP reporter assay, HEK-293 cells expressing human OX1; format: cell-based; design: expressed in transfected cells; host or cells: HEK-293 cell line, expression vector pBabeCLIH; settings: HEK-293, 1 nM human OX-A; IC50 converted to Ki by Cheng-Prusoff equation
Method: (§3) The antagonistic function of the compound of the present invention to prevent the activation of OX2 and OX1 by orexin-A (OX-A), which is a natural peptide agonist, was measured using a cell-based reporter assay. A HEK-293 cell line expressing genetically recombinant human OX2 (accession No. NM_001526.3) or a HEK-293 cell line expressing genetically recombinant human OX1 (accession No. NM_001525.2), which had pBabeCLIH as expression vector, was used. The cells were plated at a density of 10,000 cells/well onto a non-coated 96-well plate in Dulbecco's modified Eagle medium (Sigma Cat No. D6046: 10% v/v heat-inactivated fetal bovine serum was contained). The cells were cultured at 37° C. overnight, so that they could adhere to the plate. On the following day, cells were incubated with a compound of the present invention dissolved in Dulbecco's modified Eagle medium (Sigma Cat No. A8806: 0.1% w/v bovine serum albumin was contained), and added to the cell plate to reach a final concentration of 0.1% dimethyl sulfoxide.
(§4) The thus obtained mixture was incubated at room temperature for 1 hour. Thereafter, human OX-A and forskolin were dissolved in the same medium as described above, which contained fetal bovine serum albumin, and the medium was then added to the cells, resulting in a final concentration of 300 nM forskolin. Subsequently, the cells were cultured at 37° C. for approximately 18 to 24 hours. During the culture, as a result of activation of the orexin receptor and subsequent dose-dependent increase in intracellular calcium concentration, a reporter enzyme, placental alkaline phosphatase (PLAP), was expressed under the control of a CRE x4+VIP promoter in a pBabeCLcre4vPdNN vector and secreted into the culture medium supernatant. On the following day, reporter enzyme activity was detected by mixing 5 ul of the culture medium supernatant with 20 ul of detection buffer (containing 1.34 g/L sodium bicarbonate, 1.27 g/L sodium carbonate and 0.2 g/L magnesium sulfate heptahydrate in water) and 25 ul of Lumi-Phos530 reagent (Wako Pure Chemical Industries Ltd.), followed by incubating the obtained mixture light-protected at room temperature for 2 hours, before performing luminescence measurement (ARVO Reader, PerkinElmer). The Kd value of human OX-A with respect to each receptor was measured by titration from 0 to 300 nM. Then, the IC50 value of the compound of the present invention with respect to the activity of 1 nM human OX-A was converted into a Ki value (nM) using the Cheng-Prusoff equation.

[4] = target: T2, OX2; assay: Antagonism PLAP reporter assay, HEK-293 cells expressing human OX2; format: cell-based; design: expressed in transfected cells; host or cells: HEK-293 cell line, expression vector pBabeCLIH; settings: HEK-293, 1 nM human OX-A; IC50 converted to Ki by Cheng-Prusoff equation
Method: as §3, §4

[5] = membranes of recombinant CHO cells, 0.2 nM [125I]-OX-A tracer, read-out: OX1 (IC50)
[6] = membranes of recombinant CHO cells, 0.2 nM [125I]-OX-A tracer, read-out: OX2 (IC50)

| Structure (SMILES) | pKi [3] | pKi [4] | pIC50 [1, 5] | pIC50 [2, 6] | pIC50 [1] | pIC50 [2] |
| --- | --- | --- | --- | --- | --- | --- |
| COc1ccc(OCC2(c3ccccc3)CC2C(=O)Nc2ccc(Cl)cn2)cc1OC (stereo not shown) [Example 6, N-(5-chloropyridin-2-yl)-2-[(3,4-dimethoxyphenyl)oxymethyl]-2-phenylcyclopropanecarboxamide] | 8.01 | 9.10 |  |  | 7.72 | 8.52 |
| COc1ccc(OCC2(c3ccccc3)CC2C(=O)Nc2cc(C)no2)cc1OC (stereo not shown) [Example 8, N-(3-methylisoxazol-5-yl)-2-[(3,4-dimethoxyphenyl)oxymethyl]-2-phenylcyclopropanecarboxamide] | < 6.09 | 7.04 | 5.90 | 7.77 |  |  |
| COc1ccc(OCC2(c3ccccc3)CC2C(=O)Nc2ccncc2Cl)cc1OC (stereo not shown) [Example 14, N-(3-chloropyridin-4-yl)-2-[(3,4-dimethoxyphenyl)oxymethyl]-2-phenylcyclopropanecarboxamide] | < 6.09 | 7.00 | 6.36 | 7.34 |  |  |
| COc1ccc(OCC2(c3ccccc3)CC2C(=O)Nc2cc(C)on2)cc1OC (stereo not shown) [Example 21, N-(5-methylisoxazol-3-yl)-2-[(3,4-dimethoxyphenyl)oxymethyl]-2-phenylcyclopropanecarboxamide] | < 6.09 | 7.11 | 6.30 | 7.55 |  |  |
| COc1ccc(OCC2(c3ccccc3)CC2C(=O)Nc2ncc(C)s2)cc1OC (stereo not shown) [Example 22, N-(5-methyl-1,3-thiazol-2-yl)-2-[(3,4-dimethoxyphenyl)oxymethyl]-2-phenylcyclopropanecarboxamide] | < 6.09 | < 6.21 | 6.53 | 7.46 |  |  |
| COc1ccc(OCC2(c3ccccc3)CC2C(=O)Nc2cncc(F)c2)cc1OC (stereo not shown) [Example 24, N-(5-fluoropyridin-3-yl)-2-[(3,4-dimethoxyphenyl)oxymethyl]-2-phenylcyclopropanecarboxamide] | < 6.09 | 7.08 | 6.09 | 7.32 |  |  |
| COc1ccc(OCC2(c3ccccc3)CC2C(=O)Nc2ccncc2C(F)(F)F)cc1OC (stereo not shown) [Example 25, N-(3-trifluoromethylpyridin-4-yl)-2-[(3,4-dimethoxyphenyl)oxymethyl]-2-phenylcyclopropanecarboxamide] | < 6.09 | 6.41 | 6.43 |  |  | 7.57 |
| COc1ccc(OCC2(c3ccccc3)CC2C(=O)Nc2ccc(F)nc2)cc1OC (stereo not shown) [Example 26] | 7.15 | 7.89 |  |  | 7.57 | 7.37 |
| COc1ccc(OCC2(c3ccccc3)CC2C(=O)Nc2cccc(F)n2)cc1OC (stereo not shown) [Example 27, N-(6-fluoropyridin-2-yl)-2-[(3,4-dimethoxyphenyl)oxymethyl]-2-phenylcyclopropanecarboxamide] | 7.01 | 8.47 |  |  | 7.43 | 8.40 |

Second part, led by results:

| pKi [3] | pKi [4] | pIC50 [1, 5] | pIC50 [2, 6] | Structure (SMILES) | pIC50 [1] | pIC50 [2] |
| --- | --- | --- | --- | --- | --- | --- |
| < 6.09 | 7.25 | 5.72 | 7.37 | COc1ccc(OCC2(c3ccccc3)CC2C(=O)Nc2nc(C)ns2)cc1OC (stereo not shown) [Example 7, N-(3-methyl-1,2,4-thiadiazol-5-yl)-2-[(3,4-dimethoxyphenyl)oxymethyl]-2-phenylcyclopropanecarboxamide] |  |  |
| 7.16 | 8.38 | 7.25 | 8.52 | COc1ccc(OCC2(c3ccccc3)CC2C(=O)Nc2ccc(F)cn2)cc1OC (stereo not shown) [Example 10, N-(5-fluoropyridin-2-yl)-2-[(3,4-dimethoxyphenyl)oxymethyl]-2-phenylcyclopropanecarboxamide] |  |  |
| 6.24 | 7.32 | 6.48 | 7.54 | COc1ccc(OCC2(c3ccccc3)CC2C(=O)Nc2cncc(Cl)c2)cc1OC (stereo not shown) [Example 11, N-(5-chloropyridin-3-yl)-2-[(3,4-dimethoxyphenyl)oxymethyl]-2-phenylcyclopropanecarboxamide] |  |  |
| 6.73 | 7.63 | 6.98 | 7.46 | COc1ccc(OCC2(c3ccccc3)CC2C(=O)Nc2cc(C#N)ccn2)cc1OC (stereo not shown) [Example 18, N-(4-cyanopyridin-2-yl)-2-[(3,4-dimethoxyphenyl)oxymethyl]-2-phenylcyclopropanecarboxamide] |  |  |
| 6.20 | 7.80 | 6.07 | 7.85 | COc1ccc(OCC2(c3ccccc3)CC2C(=O)Nc2nc(C)cs2)cc1OC (stereo not shown) [Example 23, N-(4-methyl-1,3-thiazol-2-yl)-2-[(3,4-dimethoxyphenyl)oxymethyl]-2-phenylcyclopropanecarboxamide] |  |  |
| 7.13 | 7.96 | 7.42 | 7.60 | COc1ccc(OCC2(c3ccccc3)CC2C(=O)Nc2cc(Cl)ccn2)cc1OC (stereo not shown) [Example 28, N-(4-chloropyridin-2-yl)-2-[(3,4-dimethoxyphenyl)oxymethyl]-2-phenylcyclopropanecarboxamide] |  |  |
| 7.62 | 8.35 | 7.70 | 8.22 | COc1cccc(NC(=O)C2CC2(COc2ccc(OC)c(OC)c2)c2ccccc2)c1 (stereo not shown) [Example 34, N-(3-methoxyphenyl)-2-[(3,4-dimethoxyphenyl)oxymethyl]-2-phenylcyclopropanecarboxamide] |  |  |
